Data from ChEMBL document CHEMBL1134948, “The antimicrobial natural product chuangxinmycin and some synthetic analogues are potent and selective inhibitors of bacterial tryptophanyl tRNA synthetase” (Bioorg Med Chem Lett, 2002).
In brackets after ≈: the same amount, converted by molar mass. Several values for one entry are separate records, joined by “and”; a condition that tells them apart may be missing. Equal entries are not always repeated. Activity calls are given as the source filed them. No cut-off for these calls is given here.

Key:
[1] = Compound was tested for inhibitory activity against tryptophanyl tRNA synthetase in Staphylococcus aureus; assay type: nucleic-acid assay
Haemophilus influenzae [2] = assay: Minimum inhibitory concentration against Haemophilus influenzae Q1 at a concentration of 32 ug/mL; assay type: functional, organism-based
Moraxella catarrhalis [3] = assay: Minimum inhibitory concentration against Moraxella catarrhalis 1502 at a concentration of 32 ug/mL; assay type: functional, organism-based
Nucleic Acid [4] = assay: Compound was tested for inhibitory activity against tryptophanyl tRNA synthetase in Staphylococcus aureus; NI means no inhibition uM; assay type: nucleic-acid assay
Staphylococcus aureus [5] = assay: Minimum inhibitory concentration against Staphylococcus aureus Oxford at a concentration of 32 ug/mL; assay type: functional, organism-based
Nucleic Acid [6] = assay: Binding affinity against Tryptophanyl tRNA synthetase was determined; assay type: nucleic-acid assay, Staphylococcus aureus
Nucleic Acid [7] = assay: Compound was tested for inhibitory activity against tryptophanyl tRNA synthetase in Staphylococcus aureus Oxford; No significant inhibition up to 20 uM concentration; assay type: nucleic-acid assay
Moraxella catarrhalis [8] = assay: Minimum inhibitory concentration against Moraxella catarrhalis 1502; assay type: functional
Haemophilus influenzae [9] = assay: Minimum inhibitory concentration against Haemophilus influenzae Q1; assay type: functional
Staphylococcus aureus [10] = assay: Minimum inhibitory concentration against Staphylococcus aureus oxford; assay type: functional

Work on CC1c2c[nH]c3cccc(c23)SC1C=O (stereo unspecified) yielded an IC50 [1] of 90 nM.

Work on CC1c2c[nH]c3cccc(c23)SC1C#N (stereo unspecified) yielded an IC50 [1] of 1100 nM.

For O=C([O-])[C@@H]1Sc2cccc3[nH]cc(c23)[C@@H]1CO.[Na+], the MIC (Haemophilus influenzae [2]) was “inactive”, the MIC (Moraxella catarrhalis [3]) was “inactive” and the IC50 (Nucleic Acid [4]) was “No inhibition”. For the same compound, the MIC (Staphylococcus aureus [5]) was “inactive”.

With C[C@H]1c2c[nH]c3cccc(c23)S[C@H]1C(=O)O [CHUANGXINMYCIN] the Ki (Nucleic Acid [6]) was 20 nM and the IC50 [1] was 30 nM and 200 nM.

With COC(=O)C1Sc2cccc3[nH]cc(c23)C1C (stereo unspecified) the Activity (Nucleic Acid [7]) was “No significant inhibition up to 20 uM concentration”.

For CC1c2c[nH]c3cccc(c23)SC1C(=O)NO (stereo unspecified), the IC50 (Nucleic Acid [4]) was “No inhibition”.

Compound O=C1OC[C@H]2c3c[nH]c4cccc(c34)S[C@@H]12 has an MIC (Moraxella catarrhalis [8]) of 16 µg/mL (≈ 69.2 µM), an MIC (Haemophilus influenzae [9]) of 16 µg/mL (≈ 69.2 µM) and an IC50 [1] of 230 nM. For the same compound, the MIC (Staphylococcus aureus [10]) was 4 µg/mL (≈ 17.3 µM).

With CC1c2c[nH]c3cccc(c23)SC1C(N)=O (stereo unspecified) the Activity (Nucleic Acid [7]) was “No significant inhibition up to 20 uM concentration”.

In the case of CC1c2c[nH]c3cccc(c23)SC1c1nnn[nH]1 (stereo unspecified), the IC50 (Nucleic Acid [4]) is reported as “No inhibition”.
